Results on one compound are retold here after patent US10981021B2, “Method for transiently disrupting a region of the blood-brain barrier of a human” (Carthera, priority 2016, dated 2021).

Several values for one entry are separate records, joined by “and”; a condition that tells them apart may be missing. Equal entries are not always repeated.

This data set deals with recurrent glioblastoma (GBM). The experiment in a line: Clinical trial: monthly ultrasound BBB opening followed by carboplatin in recurrent glioblastoma patients. From the text: Patients experiencing recurrence (first, second or third) of a histologically proven de novo glioblastoma (GBM), previously treated with at least the first line standard of care were included (i.e. radiation with concurrent and adjuvant temozolomide). Patients had to have a growing contrast-enhancing tumor of less than 35 mm in diameter and be eligible for carboplatin-based chemotherapy.
The trial was designed as a dose escalation study (Simon et al. 1997) in which the US pressure was increased throughout the study starting at 0.5 and increasing to 1.1 MPa through 5 different “dose” levels (0.50, 0.65, 0.80, 0.95, and 1.1 MPa).
A minimum of three patients were included at each dose level. If none of the patients experienced a dose-limiting toxicity (DLT), the next dose level was opened. If one patient experienced a DLT, three additional patients were enrolled at that dose level.
Patients received US activation and BBB disruption every four weeks. The first treatment was performed at the initial “dose” level for the inclusion group, the second treatment at the next highest dose level, etc. Patients were treated monthly for up to a maximum of six treatments or until there was evidence of tumor progression.
All patients were assessed monthly using MR imaging, blood sampling, and clinical neurological evaluation. Two days prior to each planned ultrasound treatment, tumor status was evaluated on MRI according to the Response Assessment in Neuro-Oncology (RANO) Criteria (Wen et al. 2010). Progression-free survival (PFS) and overall survival (OS) were also assessed. Patients left the study if tumor progression was identified, which defined progression as an increase in tumor size of more than 25% or an increase in T2/FLAIR or as a neurological status degradation (Wen et al. 2010).
In the absence of tumor progression and significant toxicity, the BBB opening session followed by carboplatin injection was scheduled two days after. […]
Carboplatin dose (AUC, area under the curve) administration was calculated based on the Calvert formula taking into account renal function. […]

[1] abbreviates: per patient, recurrent GBM, monthly US (0.5-1.1 MPa) + SonoVue BBB opening followed by i.v. carboplatin AUC 4-6.

For the compound `N.N.O=C([O-])C1(C(=O)[O-])CCC1.[Pt+2]` [Carboplatin], under “GBM patients, carboplatin perfusion started within 60 minutes after US BBB opening”, the cerebral carboplatin-related toxicity result is “No cerebral carboplatin-related toxicity was observed”. In addition, under setting [1], the Duration on-study is 3 months (4×) and 2 months (6×) and 2.5 months and >5 months and >4 months and 4 months and still on study; the “Tumor Progression (MRI, FLAIR/ T1Gd) in the acoustic” value is “Yes (5×) and No (9×) and slight”.
